Results as given in article PMC5638611, “Effects of glutamate and ivermectin on single glutamate-gated chloride channels of the parasitic nematode H. contortus” (PLoS Pathogens, 2017).

Columns and labels:
[1] = molecular target: T1, glutamate-gated chloride channel receptor α (avr-14b) (GluClR), homomeric (Haemonchus contortus, UniProt O46124); experiment: outside-out patch single-channel recording; direct activation by […] IVM, and potentiation of […] glutamate; assay type: cell-based
T1 construct: gene gbr-2; homomeric avr-14b subunit expressed in HEK AD293 cells
T1 sequence (O46124 entry or part of it): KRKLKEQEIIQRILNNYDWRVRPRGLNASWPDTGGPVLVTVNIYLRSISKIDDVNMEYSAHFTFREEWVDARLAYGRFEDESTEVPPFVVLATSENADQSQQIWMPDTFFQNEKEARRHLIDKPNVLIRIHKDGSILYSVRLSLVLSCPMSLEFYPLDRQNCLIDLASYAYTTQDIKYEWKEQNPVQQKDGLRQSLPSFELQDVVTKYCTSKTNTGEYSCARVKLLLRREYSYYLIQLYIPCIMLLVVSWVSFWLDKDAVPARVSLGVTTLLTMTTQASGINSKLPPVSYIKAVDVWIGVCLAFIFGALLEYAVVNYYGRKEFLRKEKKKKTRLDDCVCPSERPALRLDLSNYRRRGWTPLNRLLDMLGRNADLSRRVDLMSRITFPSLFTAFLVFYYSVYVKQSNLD

[2] = molecular target: T2, glutamate-gated chloride channel receptor α (avr-14b) (GluClR), homomeric, G36'A mutant (Haemonchus contortus, UniProt O46124, G329A); experiment: outside-out patch single-channel recording; direct activation by […] IVM; assay type: cell-based
T2 construct: gene gbr-2; homomeric avr-14b subunit expressed in HEK AD293 cells
T2 sequence (O46124 31-438 G329A): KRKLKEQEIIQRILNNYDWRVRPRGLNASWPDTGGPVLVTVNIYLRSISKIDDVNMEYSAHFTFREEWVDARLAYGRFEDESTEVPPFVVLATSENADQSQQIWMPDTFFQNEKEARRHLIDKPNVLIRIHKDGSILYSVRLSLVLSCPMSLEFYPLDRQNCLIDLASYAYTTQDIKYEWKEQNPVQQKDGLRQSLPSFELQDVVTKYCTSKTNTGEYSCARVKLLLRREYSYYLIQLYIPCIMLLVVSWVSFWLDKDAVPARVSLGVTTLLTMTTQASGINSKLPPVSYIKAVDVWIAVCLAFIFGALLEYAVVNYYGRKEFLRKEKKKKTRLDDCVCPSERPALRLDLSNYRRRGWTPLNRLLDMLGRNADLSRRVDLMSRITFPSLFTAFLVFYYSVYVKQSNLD

Q: `CC[C@H](C)[C@H]1O[C@]2(CC[C@@H]1C)C[C@@H]1C[C@@H](C/C=C(\C)[C@@H](O[C@H]3C[C@H](OC)[C@@H](O[C@H]4C[C@H](OC)[C@@H](O)[C@H](C)O4)[C@H](C)O3)[C@@H](C)/C=C/C=C3\CO[C@@H]4[C@H](O)C(C)=C[C@@H](C(=O)O1)[C@]34O)O2` [Ivermectin] was tested. Which “outside-out patch single-channel recording; direct activation by 5 nM IVM, and p” value [1] did it give?
A: 5 nM

Q: What about the “outside-out patch single-channel recording; direct activation by 5 nM IVM” value [2] of the same molecule?
A: 5 nM
